Measurements taken from patent publication US20150299648A1, “IMPROVED CULTIVATION MEDIA AND PROCESS FOR IMPROVED PROTEIN PRODUCTION BY PICHIA STRAINS” (priority 2012, published 2015).
“Also recorded” adds a separate entry of the source.

Columns and labels:
[1] = test system: P. pastoris YGLY 21058 strain; test: Fermentability of sorbitol and maltitol determined by HPLC; format: cell-based, Pichia pastoris; settings: BSGY; maltitol 50 g/L; methanol induction phase
Description: The P. pastoris YGLY 21058 strain was cultivated in 1 L bioreactor and 50 g/L of maltitol was mixed in BSGY medium. The samples were taken at the beginning of fermentation, at the end of glycerol fed-batch before adding maltitol, and two different time-points in methanol induction phase, as shown in FIG. 3. The supernatant was separated by the centrifugation at 13,000 rpm for 1 minutes using micro-centrifuge. The samples properly diluted with distilled water were filtered using 0.2 μm-filter and the residual concentrations of sorbitol and maltitol were determined by HPLC using AMINEX HPX-87H column. The residence times (RTs) for sorbitol and maltitol were 11.5 and 9.3 min respectively. The data were shown in FIG. 3 as two independent runs of cultivation.

[2] = Osmolality of sugar and sugar alcohol solutions (osmometer); format: physicochemical; settings: 500 mM in water
Description: The sugar and sugar alcohol solutions used as osmoprotectant supplements were prepared at 500 mM in water and their osmolalities were measured using Osmometer (Multi-somotte, Model 2430, Precision Systems Inc, MA, USA). The osmolality of solution was directly proportional to the concentration of component in solution. For instance there was a linear relationship between sorbitol concentration (mM) and osmolality of the solution (mOsm/kg) as shown in FIG. 1A. The osmolalities of maltitol, sorbitol, glycerol, and glucose at 500 mM in water were 590±4, 544±3, 541±3, and 568±0 mOsm/kg respectively (FIG. 1B). The osmolaties of sorbose, mellibiose, ribose, quinic acid and myo-inositol at 500 Mm in water were (480±5), (500±5), (470±5), (480±5) AND (510±10), respectively.

[3] = test system: P. pastrois strain yGLY21058; test: Fermentability of sugars or sugar alcohols on M agar plate; format: cell-based, Pichia pastoris; settings: 6 days at 30° C.
Description: The 1 mL of RCB (Research Cell Bank in 20% of glycerol) for P. pastrois strain yGLY21058 producing glycosylated insulin precursor (GIP) was inoculated in 200 mL of Seed medium (4% glycerol, 1% yeast extract, 2% soytone, 1.34% YNB without amino acids, 0.23% K2HPO4, 1.19% KH2PO4, 8 μg/L biotin) and cultivated for 48 h at 24° C. The cell pellet was harvested by centrifugation at 4,000 rpm for 10 min and re-suspended with PBS buffer (pH 7.4) to wash the cell twice. The 0.1 mL of cell suspension with wash buffer was transferred and spread onto the minimal agar plate containing each sugar or sugar alcohol (1% w/v), which is listed in Table 1.
YPD (1% yeast extract, 2% yeast peptone, and 1% glucose) agar plate was used for the positive control and a minimal agar plate without carbon sources (M) was used for negative control. Growth of Pichia pastoris on M agar plate containing single carbon source was categorized as no (−), slow (+), moderate (++), and fast (+++) colony formation for 6 days in Table 1.

[4] = test system: glycoengineered P. pastoris (YGLY13979) strain producing a monoclonal antibody; test: Effect of maltitol and Mix2 supplements on fed-batch fermentation profile; format: cell-based, Pichia pastoris; settings: for Cell lysis: methanol induction phase
Description: The osmoprotective effect of maltitol (50 g/L) in combination with a supplement comprising a mixture of nutrients (Mix2) consisting of amino acid (AA1), vitamins (Vit4), trace metal ions (TM4), and basal salts (BSM2) as described in Table 2 was also evaluated using a glycoengineered P. pastoris (YGLY13979) strain producing a monoclonal antibody was cultivated in 1 L bioreactors (Biostat Q-plus, Satorius, Germany).
A P. pastoris YGLY13979 producing a monoclonal antibody was cultivated in 1 L bioreactors (Biostat Q-plus, Satorius, Germany). For fermentation in 1 L bioreactor, a vial (1 mL) of RCB (Research Cell Bank) was inoculated into 200 mL of BSGY medium in 1 L-baffled flask. The culture incubated at 24° C., while shaking on an orbital shaker at 180 rpm for 48±4 h. The bioreactor was inoculated with a 10% volumetric ratio of seed to initial BSGY medium. Cultivation conditions were following: temperature set at 24±0.5° C., pH controlled at 6.5±0.1 with 30% ammonium hydroxide, dissolved oxygen was maintained at 20% of saturation by cascading agitation rate on the addition of pure oxygen to the fixed airflow rate of 0.7 vvm. The fermentation profile of the production strain was examined using four different cultivation conditions after batch phase.
For the control, a 50% glycerol solution containing 12.5 mL/L of PTM1 salts (6.5 g FeSO4.7H2O, 2.0 g ZnCl2, 0.6 g CuSO4.5H2O, 3.0 g MnSO4.7H2O, 0.5 g CoCl2.6H2O, 0.2 g NaMoO4.2H2O, 0.2 g biotin, 80 mg NaI, 20 mg H3BO4 per L) was fed constantly at an initial rate of 0.08 h^−1 for 8 h After depletion of the initial glycerol (4%).
For Mix2, 10 mL AA1, 4 mL Vit4, 4 mL TM4, and 4 mL BSM2 were mixed with 62.5 mL of 80% glycerol and 15.5 mL of water. The Mix2 solution was fed during the glycerol fed-batch period instead of regular glycerol solution, which was used for the control.
For Maltitol, 43.5 mL of 80% matitol solution was added into bioreactor to achieve 50 g/L concentration at the end of glycerol fed-batch phase.
For Maltitol+Mix2, two conditions of Maltitol and Mix2 were combined.
Induction was initiated after a 30 min starvation phase when methanol was fed. Methanol containing 12.5 mL/L of PTM1 salts (6.5 g FeSO4.7H2O, 2.0 g ZnCl2, 0.6 g CuSO4.5H2O, 3.0 g MnSO4.7H2O, 0.5 g CoCl2.6H2O, 0.2 g NaMoO4.2H2O, 0.2 g biotin, 80 mg NaI, 20 mg H3BO4 per L) was fed constantly starting at 1.33 g/L/h under methanol limited condition. Agitation speed was changed from cascade mode with agitation speed and pure oxygen.

Q: Which “Consumption / fermentability in fed-batch fermentation (residual concentration by HPLC)” value [1] does the source give for `OC[C@@H](O)[C@@H](O[C@H]1O[C@H](CO)[C@@H](O)[C@H](O)[C@H]1O)[C@H](O)[C@@H](O)CO` [Maltitol, 4-O-α-glucopyranosyl-D-sorbitol] here?
A: not consumed; also recorded: non-fermentable

Q: And the Osmolality of solution [2]?
A: 590±4 mOsm/kg

Q: And the “Fermentability category from colony formation on the plate” value ([3]; minimal agar plate)?
A: strict non-fermentable substrates

Q: And the “Growth on M agar” value ([3]; single carbon source 1% w/v)?
A: −

Q: What about the “Increase of maximum titer of anti-Her2 monoclonal antibody over control culture” value ([4]; 5% maltitol, 600 mOsm/kg in induction phase) of the same compound?
A: 120%

Q: And the Cell lysis ([4]; vs BSGY control)?
A: reduced the cell lysis significantly

Q: What about the Cell lysis ([4]; vs BSGY control, listed as maltitol) of the same compound?
A: significantly reduced

Q: What about the “Effective range of concentration in BSGY medium” value ([4]; to increase and maintain osmolality during induction phase) of the same compound?
A: higher than 25 g/L

Q: And the Cell yield ([4]; vs BSGY control)?
A: slight reduction of cell yield
